This is an account of results in ChEMBL document CHEMBL1137582, “Quinazoline and benzimidazole MCH-1R antagonists” (Bioorg Med Chem Lett, 2007).

What is called Inhibition is the share of the control response that was lost under treatment. High values mean a strong effect, low ones a weak effect. A word on the inhibition: it is the share of the control response that was lost under treatment. For orientation: IC50 means the midpoint of a concentration-inhibition curve. A word on the solubility: it is how much of the substance goes into solution per volume.

Activity calls are given as the source filed them. No cut-off for these calls is given here. Where only a bound is given, the exact number is not on record here.

For one series, the target named is Cytochrome P450 2C19 (Homo sapiens, UniProt P33261). In words: Inhibition of human CYP2C19 at 1uM. The class given is ADME.
Another series concerns the target Cytochrome P450 2C9 (Homo sapiens, UniProt P11712). The experiment in a line: Inhibition of human CYP2C9 at 1uM. The class given is ADME.
Series [1] has as its target Adrenergic receptor alpha-1 (Homo sapiens) (UniProt P35348+P25100+P35368). In words: Inhibition of adrenergic alpha-1 receptor at 10uM. The class given is protein assay.
In the next series the target is Cytochrome P450 3A4 (Homo sapiens, UniProt P08684). The experiment in a line: Inhibition of human CYP3A4 at 1uM. It is filed as ADME.
Another series has as its target T1, Cytochrome P450 1A2 (Homo sapiens, UniProt P05177).
T1 sequence (P05177 whole entry): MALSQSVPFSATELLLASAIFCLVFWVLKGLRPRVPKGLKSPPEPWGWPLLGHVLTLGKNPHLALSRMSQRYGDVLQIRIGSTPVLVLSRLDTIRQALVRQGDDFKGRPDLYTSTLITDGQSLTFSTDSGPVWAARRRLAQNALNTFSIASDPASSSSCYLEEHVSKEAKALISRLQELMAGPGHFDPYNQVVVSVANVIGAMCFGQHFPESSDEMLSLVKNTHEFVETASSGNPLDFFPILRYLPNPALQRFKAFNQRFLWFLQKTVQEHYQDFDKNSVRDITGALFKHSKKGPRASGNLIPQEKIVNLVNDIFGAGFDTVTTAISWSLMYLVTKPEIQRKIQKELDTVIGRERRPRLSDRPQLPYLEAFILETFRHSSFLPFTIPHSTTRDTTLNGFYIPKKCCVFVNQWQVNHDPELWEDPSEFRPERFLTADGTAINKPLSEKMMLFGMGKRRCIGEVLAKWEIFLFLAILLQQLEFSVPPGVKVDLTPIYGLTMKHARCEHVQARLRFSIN
The experiment in a line: Inhibition of human CYP1A2 at 1uM. It is filed as ADME.

Series [2] deals with Voltage-gated inwardly rectifying potassium channel KCNH2 (Homo sapiens, UniProt Q12809). The experiment in a line: Inhibition of hERG in patch-clamp assay. The class given is toxicity. (hERG is a cardiac potassium channel; its block is linked to QT prolongation.)
For series [3], the target named is T2, Melanin-concentrating hormone receptor 1 (Homo sapiens, UniProt Q99705). The experiment in a line: Displacement of 125I-[Phe13,Tyr19]-MCH from MCH-R1 expressing cell membranes. On the technique in general: In a radioligand displacement assay an active substance lowers the binding of a labelled ligand.
Series [4] addresses 5-hydroxytryptamine receptor 2B (Homo sapiens, UniProt P41595). In words: Inhibition of 5HT2B.
For series [5], the target named is T3, D(2) dopamine receptor (Homo sapiens, UniProt P14416). The experiment in a line: Inhibition of D2(L).
For series [6], the target named is T4, 5-hydroxytryptamine receptor 2C (Homo sapiens) (UniProt P28335).
T4 sequence (whole entry): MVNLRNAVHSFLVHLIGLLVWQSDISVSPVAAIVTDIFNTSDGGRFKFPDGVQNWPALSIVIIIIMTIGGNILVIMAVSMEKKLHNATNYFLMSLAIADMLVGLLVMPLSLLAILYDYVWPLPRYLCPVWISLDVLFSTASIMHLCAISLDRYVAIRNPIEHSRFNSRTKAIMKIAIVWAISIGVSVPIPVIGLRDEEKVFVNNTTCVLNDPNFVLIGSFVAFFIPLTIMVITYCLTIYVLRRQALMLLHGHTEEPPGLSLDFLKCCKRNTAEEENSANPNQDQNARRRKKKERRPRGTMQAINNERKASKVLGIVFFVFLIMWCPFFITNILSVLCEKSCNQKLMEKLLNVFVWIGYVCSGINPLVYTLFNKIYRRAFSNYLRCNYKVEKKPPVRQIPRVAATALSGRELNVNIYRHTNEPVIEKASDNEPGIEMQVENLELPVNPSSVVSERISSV
In words: Inhibition of 5HT2C at 10uM.

Series [7] has as its target T5, Melanin-concentrating hormone receptor 2 (Homo sapiens, UniProt Q969V1). In words: Inhibition of MCH-R2 at 10uM.
The target in a further series is Cytochrome P450 2D6 (Homo sapiens, UniProt P10635). In words: Inhibition of human CYP2D6 at 1uM. The class given is ADME.
Series [8] concerns the target 5-hydroxytryptamine receptor 2A (Homo sapiens) (UniProt P28223). The experiment in a line: Inhibition of 5HT2A at 10uM.
For series [9], the target named is T2, Melanin-concentrating hormone receptor 1. The experiment in a line: Inhibition of MCH-mediated calcium influx into MCH-R1 expressing cells. It is filed as functional.
The target of series [10] is T3, D(2) dopamine receptor. In words: Inhibition of D2(L) at 10uM.
The target in series [11] is T5, Melanin-concentrating hormone receptor 2. In words: Inhibition of MCH-R2.
Series [12] addresses T6, Adrenergic receptor alpha-1 (Homo sapiens, UniProt P35348+P25100+P35368).
T6 sequence (P35348 whole entry): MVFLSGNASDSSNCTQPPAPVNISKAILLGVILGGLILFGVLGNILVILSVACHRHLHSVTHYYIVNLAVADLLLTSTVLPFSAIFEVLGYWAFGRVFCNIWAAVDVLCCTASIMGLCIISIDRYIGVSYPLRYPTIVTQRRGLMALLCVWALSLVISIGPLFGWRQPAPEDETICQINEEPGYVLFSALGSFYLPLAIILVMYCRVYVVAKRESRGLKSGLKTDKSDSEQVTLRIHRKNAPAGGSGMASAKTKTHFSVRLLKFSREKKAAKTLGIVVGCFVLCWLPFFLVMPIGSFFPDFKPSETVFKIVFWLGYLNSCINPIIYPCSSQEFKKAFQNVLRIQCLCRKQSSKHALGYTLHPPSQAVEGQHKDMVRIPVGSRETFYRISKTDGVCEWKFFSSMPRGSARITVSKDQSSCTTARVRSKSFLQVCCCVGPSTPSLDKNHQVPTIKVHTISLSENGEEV
T6 sequence (P25100 whole entry): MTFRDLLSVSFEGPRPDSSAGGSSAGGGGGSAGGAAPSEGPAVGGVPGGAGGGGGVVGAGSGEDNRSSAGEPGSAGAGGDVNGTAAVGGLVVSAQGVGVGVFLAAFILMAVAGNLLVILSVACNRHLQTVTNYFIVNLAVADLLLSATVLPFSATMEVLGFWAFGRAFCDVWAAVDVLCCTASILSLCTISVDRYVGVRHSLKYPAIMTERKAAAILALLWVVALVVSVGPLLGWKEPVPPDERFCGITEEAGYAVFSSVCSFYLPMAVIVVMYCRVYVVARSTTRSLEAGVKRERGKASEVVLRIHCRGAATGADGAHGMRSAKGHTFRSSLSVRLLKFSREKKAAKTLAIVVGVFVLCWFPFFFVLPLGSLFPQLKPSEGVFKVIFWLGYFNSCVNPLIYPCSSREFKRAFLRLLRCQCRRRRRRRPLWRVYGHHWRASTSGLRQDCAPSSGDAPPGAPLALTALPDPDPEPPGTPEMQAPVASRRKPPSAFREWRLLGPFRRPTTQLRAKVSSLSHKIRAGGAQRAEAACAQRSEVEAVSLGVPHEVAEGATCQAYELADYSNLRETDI
T6 sequence (P35368 whole entry): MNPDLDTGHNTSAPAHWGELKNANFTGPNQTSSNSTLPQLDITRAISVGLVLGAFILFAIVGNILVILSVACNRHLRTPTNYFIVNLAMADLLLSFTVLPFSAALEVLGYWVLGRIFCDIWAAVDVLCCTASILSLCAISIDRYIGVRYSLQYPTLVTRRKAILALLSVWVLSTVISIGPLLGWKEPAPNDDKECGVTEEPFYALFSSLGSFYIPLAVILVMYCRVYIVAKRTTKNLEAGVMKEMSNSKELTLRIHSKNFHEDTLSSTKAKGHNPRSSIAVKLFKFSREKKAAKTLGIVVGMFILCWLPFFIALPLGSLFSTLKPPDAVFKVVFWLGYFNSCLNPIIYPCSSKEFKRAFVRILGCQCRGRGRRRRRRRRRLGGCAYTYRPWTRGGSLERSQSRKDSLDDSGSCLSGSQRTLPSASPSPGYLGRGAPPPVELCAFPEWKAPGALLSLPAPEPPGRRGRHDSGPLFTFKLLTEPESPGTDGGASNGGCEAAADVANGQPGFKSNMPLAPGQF
In words: Inhibition of adrenergic alpha-1 receptor. It is filed as protein assay.

Series [13] can be described thus: Solubility at pH7.4. It is filed as physicochemical. The note with it: buffer, pH 7.4.
Series [14] deals with T2, Melanin-concentrating hormone receptor 1. In words: Inhibition of 125I-[Phe13,Tyr19]-MCH binding to MCH-R1 expressing cell membranes at 1uM.

T2 sequence (Q99705 whole entry): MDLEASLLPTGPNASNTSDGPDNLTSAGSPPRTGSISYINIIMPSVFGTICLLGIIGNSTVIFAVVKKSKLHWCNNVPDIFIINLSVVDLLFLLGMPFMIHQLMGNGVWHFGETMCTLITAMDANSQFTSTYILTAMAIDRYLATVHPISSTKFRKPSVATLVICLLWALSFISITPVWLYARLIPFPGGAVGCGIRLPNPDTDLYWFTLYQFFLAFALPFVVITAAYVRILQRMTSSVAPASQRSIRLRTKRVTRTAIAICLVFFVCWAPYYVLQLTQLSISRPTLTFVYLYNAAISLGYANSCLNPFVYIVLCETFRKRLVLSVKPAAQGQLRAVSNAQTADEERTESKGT
Cytochrome P450 3A4, sequence (P08684 whole entry): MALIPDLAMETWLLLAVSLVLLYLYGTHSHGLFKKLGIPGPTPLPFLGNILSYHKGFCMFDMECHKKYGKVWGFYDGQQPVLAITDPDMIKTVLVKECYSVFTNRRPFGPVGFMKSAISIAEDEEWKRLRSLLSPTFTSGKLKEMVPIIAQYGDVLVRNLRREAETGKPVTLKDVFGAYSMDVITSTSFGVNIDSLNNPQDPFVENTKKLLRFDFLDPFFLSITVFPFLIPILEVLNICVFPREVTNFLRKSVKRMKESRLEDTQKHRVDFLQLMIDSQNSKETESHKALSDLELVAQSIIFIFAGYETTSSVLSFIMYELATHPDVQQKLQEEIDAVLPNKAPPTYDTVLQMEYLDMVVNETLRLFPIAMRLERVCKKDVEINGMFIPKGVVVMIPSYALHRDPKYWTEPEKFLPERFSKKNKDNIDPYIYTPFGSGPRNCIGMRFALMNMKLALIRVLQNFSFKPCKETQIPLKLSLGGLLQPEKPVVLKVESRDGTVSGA
Cytochrome P450 2C19, sequence (P33261 whole entry): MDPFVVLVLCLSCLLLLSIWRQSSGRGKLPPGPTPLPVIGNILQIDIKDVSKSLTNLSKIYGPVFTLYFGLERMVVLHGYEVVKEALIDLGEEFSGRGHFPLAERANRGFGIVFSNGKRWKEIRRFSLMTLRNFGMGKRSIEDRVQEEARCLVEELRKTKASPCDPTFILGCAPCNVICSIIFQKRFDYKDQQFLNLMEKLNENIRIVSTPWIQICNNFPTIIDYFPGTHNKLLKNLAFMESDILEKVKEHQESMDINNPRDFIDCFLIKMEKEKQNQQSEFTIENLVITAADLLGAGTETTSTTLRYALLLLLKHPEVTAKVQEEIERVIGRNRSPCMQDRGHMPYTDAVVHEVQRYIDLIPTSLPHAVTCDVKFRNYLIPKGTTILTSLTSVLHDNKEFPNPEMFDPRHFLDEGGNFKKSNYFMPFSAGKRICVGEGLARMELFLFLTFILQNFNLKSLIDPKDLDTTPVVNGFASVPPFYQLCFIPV
T3 sequence (P14416 whole entry): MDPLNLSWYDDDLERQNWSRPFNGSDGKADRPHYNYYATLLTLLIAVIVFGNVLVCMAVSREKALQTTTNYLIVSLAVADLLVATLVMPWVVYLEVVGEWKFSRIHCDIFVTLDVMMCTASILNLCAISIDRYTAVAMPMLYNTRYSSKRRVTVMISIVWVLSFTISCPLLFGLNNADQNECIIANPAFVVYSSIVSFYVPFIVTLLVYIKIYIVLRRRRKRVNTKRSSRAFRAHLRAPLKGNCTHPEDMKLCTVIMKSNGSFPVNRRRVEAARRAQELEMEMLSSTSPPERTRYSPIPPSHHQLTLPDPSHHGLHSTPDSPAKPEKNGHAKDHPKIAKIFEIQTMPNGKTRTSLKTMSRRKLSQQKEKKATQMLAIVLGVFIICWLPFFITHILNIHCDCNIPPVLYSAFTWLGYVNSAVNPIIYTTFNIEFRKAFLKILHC
Cytochrome P450 2D6, sequence (P10635 whole entry): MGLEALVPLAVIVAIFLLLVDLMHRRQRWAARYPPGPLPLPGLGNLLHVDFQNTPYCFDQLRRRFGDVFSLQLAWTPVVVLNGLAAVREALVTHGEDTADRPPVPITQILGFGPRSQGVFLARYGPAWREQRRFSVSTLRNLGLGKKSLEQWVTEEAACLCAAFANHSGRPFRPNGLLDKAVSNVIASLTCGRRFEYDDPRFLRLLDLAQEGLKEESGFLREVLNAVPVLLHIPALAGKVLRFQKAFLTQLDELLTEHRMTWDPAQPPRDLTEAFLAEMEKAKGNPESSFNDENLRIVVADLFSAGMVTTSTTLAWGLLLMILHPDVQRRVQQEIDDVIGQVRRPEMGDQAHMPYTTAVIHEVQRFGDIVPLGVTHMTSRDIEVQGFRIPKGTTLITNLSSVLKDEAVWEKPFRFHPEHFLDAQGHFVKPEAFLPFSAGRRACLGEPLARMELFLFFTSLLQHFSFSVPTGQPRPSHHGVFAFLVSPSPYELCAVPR
Cytochrome P450 2C9, sequence (P11712 whole entry): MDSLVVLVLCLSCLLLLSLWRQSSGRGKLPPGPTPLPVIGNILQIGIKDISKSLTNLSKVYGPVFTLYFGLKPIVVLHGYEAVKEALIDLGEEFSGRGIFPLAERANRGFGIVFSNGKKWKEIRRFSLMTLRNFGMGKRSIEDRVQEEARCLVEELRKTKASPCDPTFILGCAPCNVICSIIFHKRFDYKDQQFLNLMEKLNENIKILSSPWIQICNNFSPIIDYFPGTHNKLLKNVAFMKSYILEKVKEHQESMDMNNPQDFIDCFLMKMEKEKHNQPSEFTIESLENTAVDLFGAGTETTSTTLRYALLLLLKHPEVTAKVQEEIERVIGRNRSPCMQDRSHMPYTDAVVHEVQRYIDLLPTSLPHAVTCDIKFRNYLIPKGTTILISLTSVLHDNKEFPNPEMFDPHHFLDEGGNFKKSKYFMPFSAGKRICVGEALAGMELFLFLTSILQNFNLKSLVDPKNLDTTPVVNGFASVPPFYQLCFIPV
T5 sequence (Q969V1 whole entry): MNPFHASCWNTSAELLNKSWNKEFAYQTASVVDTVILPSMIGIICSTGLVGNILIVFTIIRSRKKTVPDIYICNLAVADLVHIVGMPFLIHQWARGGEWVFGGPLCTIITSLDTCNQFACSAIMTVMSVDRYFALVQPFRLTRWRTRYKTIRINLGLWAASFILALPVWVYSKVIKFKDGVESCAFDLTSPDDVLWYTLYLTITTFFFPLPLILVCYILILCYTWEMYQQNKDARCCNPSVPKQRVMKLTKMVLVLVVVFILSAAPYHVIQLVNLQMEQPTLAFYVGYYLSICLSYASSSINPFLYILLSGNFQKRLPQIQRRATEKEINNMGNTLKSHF
5-hydroxytryptamine receptor 2A (Homo sapiens), sequence (P28223 whole entry): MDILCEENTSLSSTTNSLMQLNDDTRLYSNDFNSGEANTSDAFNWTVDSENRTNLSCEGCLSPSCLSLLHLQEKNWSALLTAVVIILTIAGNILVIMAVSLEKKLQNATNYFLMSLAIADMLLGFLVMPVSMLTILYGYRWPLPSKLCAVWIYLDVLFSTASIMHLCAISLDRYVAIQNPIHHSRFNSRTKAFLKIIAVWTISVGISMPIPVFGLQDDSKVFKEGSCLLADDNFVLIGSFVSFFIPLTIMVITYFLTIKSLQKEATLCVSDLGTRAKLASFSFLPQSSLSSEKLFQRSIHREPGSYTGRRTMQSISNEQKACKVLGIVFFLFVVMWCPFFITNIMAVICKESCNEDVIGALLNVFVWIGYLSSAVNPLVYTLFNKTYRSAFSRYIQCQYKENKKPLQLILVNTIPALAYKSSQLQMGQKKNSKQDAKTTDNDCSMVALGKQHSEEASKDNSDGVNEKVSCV
5-hydroxytryptamine receptor 2B, sequence (P41595 whole entry): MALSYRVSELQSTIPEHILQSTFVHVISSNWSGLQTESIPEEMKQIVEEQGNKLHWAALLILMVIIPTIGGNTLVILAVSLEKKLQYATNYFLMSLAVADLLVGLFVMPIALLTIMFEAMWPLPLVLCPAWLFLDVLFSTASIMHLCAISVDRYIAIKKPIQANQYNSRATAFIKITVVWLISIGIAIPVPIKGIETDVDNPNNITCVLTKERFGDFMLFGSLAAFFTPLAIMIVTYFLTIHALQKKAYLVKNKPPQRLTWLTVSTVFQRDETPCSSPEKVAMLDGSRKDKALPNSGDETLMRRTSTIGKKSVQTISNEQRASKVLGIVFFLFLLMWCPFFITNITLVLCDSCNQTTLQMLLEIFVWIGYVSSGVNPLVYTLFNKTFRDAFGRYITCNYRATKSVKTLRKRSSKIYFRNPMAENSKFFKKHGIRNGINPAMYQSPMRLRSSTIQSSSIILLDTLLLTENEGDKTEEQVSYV

For `Cc1nc(N2CCCC2)nc2ccc(NC(=O)COc3ccc(Cl)cc3)cc12`, the Inhibition entry on Cytochrome P450 2C19, at Cytochrome P450 2C9, on Cytochrome P450 3A4, on Cytochrome P450 1A2 and at Cytochrome P450 2D6 was “Not Active” in each case. Further, the inhibition in series [1] turned out to be 28%; in series [6] it was 39%; in series [7], 2%; in [8] it was 0%. Besides, the IC50 in series [2] was 10 µM; in [3] it was 0.25 µM; in series [4] it was 1.9 µM; against D(2) dopamine receptor [5], greater than 100 µM; in series [9] it was 0.058 µM.
In turn, `Cc1cc(N2CCCC2)nc2ccc(NC(=O)COc3ccc(C(F)(F)F)cc3)cc12` had an IC50 in [3] of 0.015 µM.
As to `Cc1nc(N(C)CCN(C)C)nc2ccc(NC(=O)COc3ccc(C(F)(F)F)cc3)cc12`, the IC50 in series [3] came out at 0.26 µM; in [9], 0.164 µM.
For `COc1ccc(OCC(=O)Nc2ccc3nc(N4CCCC4)nc(C)c3c2)cc1`, the figures for the IC50 in series [3] and in [9] were 0.39 µM and 0.041 µM, respectively.
As for `CC(C)Nc1nc2ccc(NC(=O)COc3ccc(C(F)(F)F)cc3)cc2n1C`, the IC50 worked out at 0.07 µM in series [3] and 0.101 µM in [9].
In series [3], `O=C(COc1ccc(C(F)(F)F)cc1)Nc1ccc2nc(N3CCOCC3)ccc2c1` showed an IC50 of 0.172 µM.
On to `CN(C)CCN(C)c1nc2ccc(NC(=O)COc3ccc(C(F)(F)F)cc3)cc2n1C`, for which the inhibition was 19% against D(2) dopamine receptor [10], 7% in series [6] and 22% in series [8]. In addition, the Inhibition entry at Cytochrome P450 2C19, on Cytochrome P450 2C9, on Cytochrome P450 3A4, on Cytochrome P450 1A2 and at Cytochrome P450 2D6 was “Not Active” each time. In addition, the IC50 in series [11] was greater than 30 µM; in series [3], 0.025 µM; in series [4] it was 1.5 µM; in [12], 27 µM; in series [9], 0.028 µM. Also, the solubility in series [13] was greater than 1000 µg/mL.
`Cc1nc(N2CCCC2)nc2ccc(NC(=O)COc3cccc(Cl)c3)cc12`: the Inhibition in [14] turned out to be 7%.
In the case of `O=C(COc1ccc(C(F)(F)F)cc1)Nc1ccc2nc(N3CCOCC3)cnc2c1`, the inhibition entry in series [14] is “inactive”.
With `Cc1nc(N2CCCC2)nc2ccc(NC(=O)COc3ccc(C(F)(F)F)cc3)cc12`, the IC50 in series [3] came out at 0.165 µM; in series [9], 0.1 µM.
For `Cn1c(N2CCCC2)nc2ccc(NC(=O)COc3ccc(C(F)(F)F)cc3)cc21`, the values for the IC50 in [3] and in series [9] were 0.04 µM and 0.009 µM, respectively.
On to `O=C(COc1ccc(Cl)cc1)Nc1ccc2nc(N3CCOCC3)ccc2c1`, for which the IC50 in series [3] was 0.961 µM.
For `O=C(COc1ccc(C(F)(F)F)cc1)Nc1ccc2nc(N3CCCC3)[nH]c2c1`, the IC50 stood at 0.035 µM in series [3] and 0.009 µM in series [9].
In series [3], `Cc1nc(N2CCCC2)nc2ccc(NC(=O)COc3ccccc3Cl)cc12` displayed an IC50 of 1.93 µM.
In the case of `O=C(COc1ccc(Cl)cc1)Nc1ccc2nc(N3CCOCC3)cnc2c1`, in [14], the inhibition entry is “inactive”.
